# From ChEMBL document CHEMBL3992500, “Design, facile synthesis and biological evaluations of novel pyrano[3,2-a]phenazine hybrid molecules as antitumor agents” (Eur J Med Chem, 2017)
# Calls of active or inactive are those of the source. The calls are words filed in the database; no cut-off is given here.
# Columns and labels:
# HepG2 [1] = experiment: Upregulation of p21 protein expression in human HepG2 cells after 24 hrs by Western blot method; format: functional, cell-based
# HCT-116 = experiment: Antiproliferative activity against human HCT116 cells after 48 hrs by MTT assay; format: functional, cell-based; conditions: HCT-116, 48 h
# HepG2 [2] = experiment: Induction of apoptosis in human HepG2 cells assessed as increase in cleaved caspase-9 expression after 24 hrs by Western blot method; format: functional, cell-based
# HepG2 [3] = experiment: Induction of apoptosis in human HepG2 cells assessed as live cells at 2 uM after 24 hrs by Annexin V-APC/7-AAD staining based flow cytometry (reference value: 87%); format: functional
# HepG2 [4] = experiment: Downregulation of CDK1 protein expression in human HepG2 cells after 24 hrs by Western blot method; format: functional, cell-based
# HepG2 [5] = experiment: Induction of apoptosis in human HepG2 cells assessed as late apoptotic cells at 8 uM after 24 hrs by Annexin V-APC/7-AAD staining based flow cytometry (reference value: 6.86%); format: functional
# HepG2 [6] = experiment: Induction of apoptosis in human HepG2 cells assessed as live cells at 8 uM after 24 hrs by Annexin V-APC/7-AAD staining based flow cytometry (reference value: 87%); format: functional
# HepG2 [7] = experiment: Induction of apoptosis in human HepG2 cells assessed as early apoptotic cells at 4 uM after 24 hrs by Annexin V-APC/7-AAD staining based flow cytometry (reference value: 0.774%); format: functional
# A549 = experiment: Antiproliferative activity against human A549 cells after 48 hrs by MTT assay; format: functional, cell-based; conditions: A549, 48 h
# HepG2 [8] = experiment: Induction of apoptosis in human HepG2 cells after 24 hrs by Annexin V-APC/7-AAD staining based flow cytometry; format: functional, cell-based
# HepG2 [9] = experiment: Downregulation of cyclin B protein expression in human HepG2 cells after 24 hrs by Western blot method; format: functional, cell-based
# HepG2 [10] = experiment: Induction of apoptosis in human HepG2 cells assessed as late apoptotic cells at 2 uM after 24 hrs by Annexin V-APC/7-AAD staining based flow cytometry (reference value: 6.86%); format: functional
# [11] = molecular target: T1, DNA topoisomerase 1 (Homo sapiens) (UniProt P11387); experiment: Inhibition of DNA topoisomerase-1 (unknown origin) assessed as reduction in enzyme-catalyzed relaxation of pBR322 DNA substrate at 2.5 to 5 uM after 30 mins by ethidium bromide staining based electrophoresis
# T1 sequence (whole entry): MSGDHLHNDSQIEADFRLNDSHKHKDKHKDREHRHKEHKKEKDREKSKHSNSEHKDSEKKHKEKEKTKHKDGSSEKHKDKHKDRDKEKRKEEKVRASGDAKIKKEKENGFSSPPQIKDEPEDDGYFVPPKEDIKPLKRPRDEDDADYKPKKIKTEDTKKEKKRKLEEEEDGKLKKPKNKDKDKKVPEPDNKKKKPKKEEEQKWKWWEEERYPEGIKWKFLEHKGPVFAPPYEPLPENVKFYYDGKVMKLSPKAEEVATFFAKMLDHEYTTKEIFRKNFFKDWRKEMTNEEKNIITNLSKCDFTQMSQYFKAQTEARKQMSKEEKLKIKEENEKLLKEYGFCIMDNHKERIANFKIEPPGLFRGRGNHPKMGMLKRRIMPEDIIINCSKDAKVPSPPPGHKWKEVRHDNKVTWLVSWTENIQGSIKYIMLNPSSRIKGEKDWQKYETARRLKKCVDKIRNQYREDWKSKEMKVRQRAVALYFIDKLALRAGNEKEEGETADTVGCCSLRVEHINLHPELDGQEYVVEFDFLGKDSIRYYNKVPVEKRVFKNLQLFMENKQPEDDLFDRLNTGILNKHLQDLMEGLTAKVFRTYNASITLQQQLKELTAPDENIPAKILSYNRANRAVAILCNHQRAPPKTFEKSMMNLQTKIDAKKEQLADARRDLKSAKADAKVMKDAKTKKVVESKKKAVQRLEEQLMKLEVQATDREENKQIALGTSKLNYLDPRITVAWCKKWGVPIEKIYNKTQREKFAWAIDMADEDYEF
# [12] = Antitumor activity against mouse H22-H8D8 cells implanted in ICR mouse assessed as tumor growth inhibition at 20 mg/kg, iv relative to control; format: functional; conditions: read-out: TGI
# MCF7 = experiment: Antiproliferative activity against human MCF7 cells after 48 hrs by MTT assay; format: functional, cell-based; conditions: MCF7, 48 h
# HepG2 [13] = experiment: Induction of apoptosis in human HepG2 cells assessed as increase in cleaved caspase-3 expression after 24 hrs by Western blot method; format: functional, cell-based
# HepG2 [14] = experiment: Induction of apoptosis in human HepG2 cells assessed as necrotic cells at 4 uM after 24 hrs by Annexin V-APC/7-AAD staining based flow cytometry (reference value: 5.35%); format: functional
# HepG2 [15] = experiment: Induction of apoptosis in human HepG2 cells assessed as increase in Bax/Bcl2 ratio up to 8 uM after 24 hrs by Western blot method; format: functional, cell-based
# HepG2 [16] = experiment: Upregulation of p53 protein expression in human HepG2 cells after 24 hrs by Western blot method; format: functional, cell-based
# HepG2 [17] = experiment: Antiproliferative activity against human HepG2 cells after 48 hrs by MTT assay; format: functional, cell-based; conditions: HepG2, 48 h
# HepG2 [18] = experiment: Induction of apoptosis in human HepG2 cells assessed as necrotic cells at 2 uM after 24 hrs by Annexin V-APC/7-AAD staining based flow cytometry (reference value: 5.35%); format: functional
# Mus musculus [19] = experiment: Toxicity in ICR mouse implanted with mouse H22-H8D8 cells assessed as body weight at 10 mg/kg, iv (reference value: 29.89 to 33.78 g); format: organism-based; conditions: in vivo
# HepG2 [20] = experiment: Induction of apoptosis in human HepG2 cells assessed as necrotic cells at 8 uM after 24 hrs by Annexin V-APC/7-AAD staining based flow cytometry (reference value: 5.35%); format: functional
# [21] = molecular target: DNA topoisomerase 2-alpha (Homo sapiens) (UniProt P11388); experiment: Inhibition of DNA topoisomerase-2alpha (unknown origin) assessed as reduction in enzyme-catalyzed relaxation of pBR322 DNA substrate at 20 uM after 30 mins by ethidium bromide staining based electrophoresis
# [22] = Antitumor activity against mouse H22-H8D8 cells implanted in ICR mouse assessed as tumor growth inhibition at 5 mg/kg, iv relative to control; format: functional; conditions: read-out: TGI
# [23] = molecular target: T1, DNA topoisomerase 1 (Homo sapiens); experiment: Inhibition of DNA topoisomerase-1 (unknown origin) assessed as reduction in enzyme-catalyzed relaxation of pBR322 DNA substrate at 20 uM after 30 mins by ethidium bromide staining based electrophoresis
# [24] = molecular target: DNA topoisomerase 2-alpha (Homo sapiens) (UniProt P11388); experiment: Inhibition of DNA topoisomerase-2alpha (unknown origin) assessed as reduction in enzyme-catalyzed relaxation of pBR322 DNA substrate at 20 to 500 nM after 30 mins by ethidium bromide staining based electrophoresis
# [25] = Antitumor activity against mouse H22-H8D8 cells implanted in ICR mouse assessed as tumor growth inhibition at 10 mg/kg, iv relative to control; format: functional; conditions: read-out: TGI
# HepG2 [26] = experiment: Induction of apoptosis in human HepG2 cells assessed as live cells at 4 uM after 24 hrs by Annexin V-APC/7-AAD staining based flow cytometry (reference value: 87%); format: functional
# HepG2 [27] = experiment: Cell cycle arrest in human HepG2 cells assessed as accumulation at subG1 phase at 2 to 8 uM after 24 hrs by propidium iodide staining based flow cytometry; format: functional
# Mus musculus [28] = experiment: Toxicity in ICR mouse implanted with mouse H22-H8D8 cells assessed as body weight at 5 mg/kg, iv (reference value: 29.89 to 33.78 g); format: organism-based; conditions: in vivo
# HepG2 [29] = experiment: Induction of apoptosis in human HepG2 cells assessed as early apoptotic cells at 2 uM after 24 hrs by Annexin V-APC/7-AAD staining based flow cytometry (reference value: 0.774%); format: functional
# HepG2 [30] = experiment: Induction of apoptosis in human HepG2 cells assessed as early apoptotic cells at 8 uM after 24 hrs by Annexin V-APC/7-AAD staining based flow cytometry (reference value: 0.774%); format: functional
# HepG2 [31] = experiment: Cell cycle arrest in human HepG2 cells assessed as accumulation at G2/M phase after 24 hrs by propidium iodide staining based flow cytometry; format: functional
# HepG2 [32] = experiment: Induction of apoptosis in human HepG2 cells assessed as increase in cytochrome c release from mitochondria to cytosol up to 8 uM after 24 hrs by Western blot method; format: functional, cell-based
# HepG2 [33] = experiment: Induction of apoptosis in human HepG2 cells assessed as late apoptotic cells at 4 uM after 24 hrs by Annexin V-APC/7-AAD staining based flow cytometry (reference value: 6.86%); format: functional
# Mus musculus [34] = experiment: Toxicity in ICR mouse implanted with mouse H22-H8D8 cells assessed as body weight at 20 mg/kg, iv (reference value: 29.89 to 33.78 g); format: organism-based; conditions: in vivo
# Chain of DNA topoisomerase 2-alpha (Homo sapiens) (P11388 whole entry): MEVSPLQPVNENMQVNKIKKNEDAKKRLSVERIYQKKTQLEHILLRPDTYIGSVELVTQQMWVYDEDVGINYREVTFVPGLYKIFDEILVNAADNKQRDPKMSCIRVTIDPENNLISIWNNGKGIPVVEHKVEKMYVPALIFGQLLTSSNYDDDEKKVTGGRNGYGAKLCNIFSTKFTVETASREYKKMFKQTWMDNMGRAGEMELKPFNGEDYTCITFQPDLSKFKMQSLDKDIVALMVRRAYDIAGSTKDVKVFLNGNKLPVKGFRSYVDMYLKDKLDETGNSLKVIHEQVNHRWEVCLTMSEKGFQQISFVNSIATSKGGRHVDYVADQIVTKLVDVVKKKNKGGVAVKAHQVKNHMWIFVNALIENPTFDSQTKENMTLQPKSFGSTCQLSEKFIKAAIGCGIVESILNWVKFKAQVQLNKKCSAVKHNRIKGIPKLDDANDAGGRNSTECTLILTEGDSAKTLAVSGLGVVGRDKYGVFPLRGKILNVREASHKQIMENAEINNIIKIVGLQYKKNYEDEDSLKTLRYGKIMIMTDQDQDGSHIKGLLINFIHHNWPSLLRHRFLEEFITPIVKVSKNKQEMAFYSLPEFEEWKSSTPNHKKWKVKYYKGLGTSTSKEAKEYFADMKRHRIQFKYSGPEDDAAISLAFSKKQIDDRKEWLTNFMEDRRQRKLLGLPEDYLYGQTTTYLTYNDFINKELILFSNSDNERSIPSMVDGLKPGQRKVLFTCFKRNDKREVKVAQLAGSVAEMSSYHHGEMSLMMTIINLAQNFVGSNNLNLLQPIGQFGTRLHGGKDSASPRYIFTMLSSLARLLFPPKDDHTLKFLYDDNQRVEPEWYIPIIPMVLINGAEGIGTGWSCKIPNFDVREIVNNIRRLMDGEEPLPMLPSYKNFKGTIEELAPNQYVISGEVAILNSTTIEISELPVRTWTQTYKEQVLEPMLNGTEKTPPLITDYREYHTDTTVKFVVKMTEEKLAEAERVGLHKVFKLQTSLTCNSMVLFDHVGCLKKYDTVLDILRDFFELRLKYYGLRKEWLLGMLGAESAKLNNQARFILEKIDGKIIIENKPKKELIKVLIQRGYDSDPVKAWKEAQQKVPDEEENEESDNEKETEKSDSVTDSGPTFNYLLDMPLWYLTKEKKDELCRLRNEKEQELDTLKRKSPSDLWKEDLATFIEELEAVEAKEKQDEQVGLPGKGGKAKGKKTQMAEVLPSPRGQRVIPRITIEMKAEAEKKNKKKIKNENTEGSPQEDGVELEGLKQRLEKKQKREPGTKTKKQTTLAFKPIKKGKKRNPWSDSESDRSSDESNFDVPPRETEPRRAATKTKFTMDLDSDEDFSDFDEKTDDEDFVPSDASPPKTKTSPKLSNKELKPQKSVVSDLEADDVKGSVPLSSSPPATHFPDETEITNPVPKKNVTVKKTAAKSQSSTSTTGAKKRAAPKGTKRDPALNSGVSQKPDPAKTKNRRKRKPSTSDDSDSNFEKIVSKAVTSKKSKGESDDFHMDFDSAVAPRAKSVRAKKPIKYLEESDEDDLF
smiles,measurement,setting,value
N#CC1=C(N)Oc2c(N)cc3nc4ccccc4nc3c2C1c1ccc(Cl)c(Cl)c1 (configuration not stated),Activity,HepG2 [1],Dose-dependent effect
same,IC50,HCT-116,8 µM
same,Activity,HepG2 [2],Dose-dependent effect
same,Activity,HepG2 [3],80%
same,Activity,HepG2 [4],Dose-dependent effect
same,Activity,HepG2 [5],53.5%
same,Activity,HepG2 [6],22.5%
same,Activity,HepG2 [7],8.97%
same,IC50,A549,6.8 µM
same,Activity,HepG2 [8],Dose-dependent effect
same,Activity,HepG2 [9],Dose-dependent effect
same,Activity,HepG2 [10],11.2%
same,inhibition,[11],Active
same,inhibition in vivo at 20 mg/kg,[12],77.8%
same,IC50,MCF7,7.3 µM
same,Activity,HepG2 [13],Dose-dependent effect
same,Activity,HepG2 [14],14.9%
same,Activity,HepG2 [15],Active
same,Activity,HepG2 [16],Dose-dependent effect
same,IC50,HepG2 [17],2.1 µM
same,Activity,HepG2 [18],5.65%
same,Activity,Mus musculus [19],35.33 g
same,Activity,HepG2 [20],20.7%
same,inhibition,[21],Active
same,inhibition in vivo at 5 mg/kg,[22],7.78%
same,inhibition,[23],Active
same,inhibition,[24],Active
same,inhibition in vivo at 10 mg/kg,[25],68.9%
same,Activity,HepG2 [26],44.7%
same,Activity,HepG2 [27],Active
same,Activity,Mus musculus [28],38 g
same,Activity,HepG2 [29],3.1%
same,Activity,HepG2 [30],3.31%
same,Activity,HepG2 [31],Dose-dependent effect
same,Activity,HepG2 [32],Active
same,Activity,HepG2 [33],31.5%
same,Activity,Mus musculus [34],35.22 g
